The text below walks through data of ChEMBL document CHEMBL1143568, “A new class of selective myocardial calcium channel modulators. 2. Role of the acetal chain in oxadiazol-3-one derivatives” (J Med Chem, 2005).

For test [1], the species on record is Cavia porcellus. In words: Negative inotropic activity as decrease in the developed tension in isolated guinea pig left artium at 5x10E-5 M (n=4-6).
The species named for test [2] is Cavia porcellus. In words: Vasorelaxant activity determined by percentage inhibition of calcium-induced contraction on K+ depolarized guinea pig aortic strip.
Test [3] is filed under the species Cavia porcellus. Put plainly: Negative chronotropic activity was determined as percent decrease in the artial rate in spontaneously beating guinea pig artium at 5x10E-5 M (n=6-8).
The species named for test [4] is Cavia porcellus. Put plainly: Negative inotropic potency as decrease in the developed tension in isolated guinea pig left artium.
The species entered for test [5] is Cavia porcellus. In words: Negative inotropic activity as decrease in the developed tension in isolated guinea pig left artium at 10E-5 M (n=4-6).
The species named for test [6] is Cavia porcellus. In words: Vasorelaxant activity determined by percentage inhibition of calcium-induced contraction on K+ depolarized guinea pig aortic strip at 5x10E-5 M.
Test [7] is filed under the species Cavia porcellus. In words: Negative inotropic activity as decrease in the developed tension in isolated guinea pig left artium at 5x10E-6 M (n=4-6).
Test [8] is filed under the species Cavia porcellus. In words: Negative inotropic activity as decrease in the developed tension in isolated guinea pig left artium 5x10E-5 M (n=4-6).

For the molecule `CCCCCCCCCCCCCCCO[C@@]1(c2ccc(Br)cc2)SC=C(C)n2c1noc2=O`, the figures for the Decrease in the test filed under Cavia porcellus [1], in the test filed under Cavia porcellus [2] and in the test filed under Cavia porcellus [3] were 75%, 4% and 12%, respectively. Moreover, the EC50 in the test filed under Cavia porcellus [4] was found to be 420 nM.
Turning to `CC1=CSC(OC(C)C)(c2ccc(Br)cc2)c2noc(=O)n21` (stereo unspecified), the figures for the Decrease in the test listed under Cavia porcellus [5], in the test listed under Cavia porcellus [3] and in the test listed under Cavia porcellus [6] were 58%, 4% and 18%, respectively. This molecule yielded an EC50 in the test listed under Cavia porcellus [4] of 270 nM.
On to `CC1=CS[C@@](OC(C)C)(c2ccc(Cl)cc2)c2noc(=O)n21`, for which the Decrease was 64% in the test listed under Cavia porcellus [7], 10% in the test listed under Cavia porcellus [3] and 10% in the test filed under Cavia porcellus [6]. In the test filed under Cavia porcellus [4], this molecule gave an EC50 of 220 nM.
`CCCCCCCCCCCCOC1(c2ccc(Cl)cc2)SC=C(C)n2c1noc2=O` (stereo unspecified): the Decrease in the test listed under Cavia porcellus [3] was 5%; in the test filed under Cavia porcellus [8], 56%; in the test filed under Cavia porcellus [6], 5%. Besides, it took 870 nM to reach a half-maximal effect in the test listed under Cavia porcellus [4] (EC50).

By EC50 is commonly meant the midpoint of the concentration-response curve. A low value points to greater potency.
